Source: patent US9334524B2, “Methods for improving and managing nucleoside reverse-transcriptase inhibition based treatment” (priority 2011, dated 2016)
Like-named read-outs stand apart in the source and are kept apart here.

Experiments:
[1] = tested on: HIV-1 reverse transcriptase; conditions: Strain A#§ (dCK+, CNT2+), 200 μM, 72 hours
Protocol: HIV RT activity was determined in both strains as described in U.S. Pat. No. 5,714,313 as follows. Both HIV1 RT expressing strains were grown in SD-ura+glucose to saturation. 1 DO of saturated culture (about 10^7 cells) was seeded in 1 ml SGal-ura and grew for 6 hrs. Glucose was then added to stop RT activation. After 12 hours, induced cells were seeded at 0.2 DO/ml in SD-His media and incubated for 72 hours. Incubations were performed at 30° C. with shaking Inhibition of HIV-1 RT activity was determined by measuring the inhibition of growth in the presence 200 μM concentration of ABC (Abacavir) or TFV (Tenofovir) inhibitors, as shown in Table II.

[2] = tested on: HIV-1 reverse transcriptase; conditions: Strain A§§ (NT5C+, CNT2+), 200 μM, 72 hours
Protocol: HIV RT activity was determined in both strains as described in U.S. Pat. No. 5,714,313 as follows. Both HIV1 RT expressing strains were grown in SD-ura+glucose to saturation. 1 DO of saturated culture (about 10^7 cells) was seeded in 1 ml SGal-ura and grew for 6 hrs. Glucose was then added to stop RT activation. After 12 hours, induced cells were seeded at 0.2 DO/ml in SD-His media and incubated for 72 hours.

[3] = tested on: HIV-1 reverse transcriptase; conditions: Strain B## (dCK+, OAT1+ in genome), 100 μM, 72 hours, FIG. 2
Description: S. cerevisiae strain B (Mat a, URA+, HIS−, LEU+) was transformed, using the standard Lithium Acetate protocol, with a previously linearized by StuI restriction enzyme p426GPDhdCK plasmid that contains the nucleic acid sequences coding for dCK and ura3, and where linearization occurred within the ura3 open reading frame. The new strain (Strain B#) where integration of dCK occurred at the ura3 locus has the following phenotype (Mat a, URA−, HIS−, LEU+, dCK+).
Strain B# was genetically modified by standard methods through transformation with a PCR amplified DNA fragment. This nucleic acid fragment contains the nucleic acid sequence coding for OAT1 transporter flanked by 5′ and 3′ non-coding regions of the leu2 locus. The new modified strain where dCK and OAT1 are integrated in the yeast genome, Strain B## (Mat a, URA−, HIS−, LEU−, dCK+, OAT1+), was transformed with the plasmid pHART21 described in U.S. Pat. No. 5,714,313. HIV-1 RT activity in Strain B## was determined as described in U.S. Pat. No. 5,714,313 after 72 hours incubation in the presence of 100 μM of either AZT, ddC, ddI or d4T.

[4] = tested on: HIV-1 reverse transcriptase; format: cell-based; conditions: for inhibition of cell growth, then reverse transcription (OD @ 600 nm): Strain A# (dCK in genome, OAT1 plasmid), 100 μM, 72 hours, FIG. 1; for inhibition of HIV RT enabled by expression of OAT1: transformed yeast cell expressing OAT1
[5] = tested on: HIV-1 reverse transcriptase; format: cell-based; conditions: for % Inhibition of HIV Reverse Transcriptase activity in yeast cells: Strain A# (dCK+, CNT3+), 200 μM, 72 hours incubation; for inhibition of HIV RT enabled by expression of CNT3: transformed yeast cell expressing CNT3
[6] = tested on: HIV-1 reverse transcriptase; format: cell-based; conditions: for % Inhibition of HIV Reverse Transcriptase activity in yeast cells: Strain A (no dCK, no transporter), 200 μM, 72 hours incubation; for inhibition of cell growth, then reverse transcription (OD @ 600 nm): Strain A (not carrying dCK and OAT1), 100 μM, 72 hours, FIG. 1

SMILES | % Inhibition of HIV-1 Reverse transcriptase in modified yeast cells [1] [%] | % Inhibition of HIV-1 Reverse transcriptase in modified yeast cells [2] [%] | inhibition of cell growth (% inhibition), then reverse transcription, absorbance at 600 nm [3] | inhibition of cell growth, then reverse transcription (OD @ 600 nm) [4] | inhibition of HIV RT enabled by expression of OAT1 [4] | % Inhibition of HIV Reverse Transcriptase activity in yeast cells [5] [%] | inhibition of HIV RT enabled by expression of CNT3 [5] | % Inhibition of HIV Reverse Transcriptase activity in yeast cells [6] [%] | inhibition of cell growth, then reverse transcription (OD @ 600 nm) [6]
Nc1nc(NC2CC2)c2ncn([C@H]3C=C[C@@H](CO)C3)c2n1 [ABC, Abacavir] | 87 | 0 | – | – | – | – | – | – | –
Cc1cn([C@H]2C[C@H](N=[N+]=[N-])[C@@H](CO)O2)c(=O)[nH]c1=O [AZT, Zidovudine] | – | – | inhibits cell growth | inhibits cell growth | good inhibition | 31 | good inhibition | 0 | can not inhibit cell growth
CC(C)OC(=O)OCOP(=O)(CO[C@H](C)Cn1cnc2c(N)ncnc21)OCOC(=O)OC(C)C [TFV, Tenofovir] | 96 | 0 | – | – | – | – | – | – | –
Cc1cn([C@H]2C=C[C@@H](CO)O2)c(=O)[nH]c1=O [d4T, Stavudine] | – | – | inhibits cell growth | inhibits cell growth | good inhibition | 56 | good inhibition | 0 | can not inhibit cell growth
Nc1ccn([C@H]2CC[C@@H](CO)O2)c(=O)n1 [ddC, Zalcitabine] | – | – | inhibits cell growth | inhibits cell growth | good inhibition | – | – | – | can not inhibit cell growth
O=c1[nH]cnc2c1ncn2[C@H]1CC[C@@H](CO)O1 [ddI, Didanosine] | – | – | inhibits cell growth | inhibits cell growth | good inhibition | – | – | – | can not inhibit cell growth
